The values below are quoted from earlier work in PubChem BioAssay AID1259410 (Chemical Carcinogenesis Research Information System (CCRIS), 2018).

The test system of the data set is rodent tumor promotion studies, tumor incidence. Kind of data set: CCRIS tumor promotion studies.
Where [1] appears, read: Carcinogen: 7,12-DIMETHYLBENZ(A)ANTHRACENE, Doses [Carcinogen]: TOP, Route [Carcinogen]: DERMAL, Route [Promoter]: DERMAL, Species: MOUSE, Strain/Sex: FEMALE.

SMILES strings stand for the structures.

As to `S=C=NCCCCCCc1ccccc1`, the outcome runs as follows: (Carcinogen: AZOXYMETHANE, 25843-45-2, Doses [Carcinogen]: 15 MG/KG BW 1/WK FOR 2 WK, Doses [Promoter]: 0, 640 PPM IN DIET BEGINNING 2 WK PRIOR TO CARCINOGEN DOSE (STUDY DURATION: 56 WK), Route [Carcinogen]: SUBCUTANEOUS, Route [Promoter]: ORAL, Species: RAT, Strain/Sex: F344/MALE) “intestine: adenocarcinoma”; (Carcinogen: N-METHYL-N-BENZYLNITROSAMINE, 937-40-6, Doses [Carcinogen]: 0.5 MG/KG BW 1/WK FOR 15 WK, Doses [Promoter]: 0, 1, 2.5 UMOL/G DIET FOR DURATION OF STUDY BEGINNING 2 WK PRIOR TO CARCINOGEN TREATMENT (STUDY DURATION: 21 WK), Doses [Promoter]: 0, 1, 2.5 UMOL/G DIET FOR DURATION OF STUDY BEGINNING 2 WK PRIOR TO CARCINOGEN TREATMENT (STUDY DURATION: 21 WK), Route [Carcinogen]: SUBCUTANEOUS, Route [Promoter]: ORAL, Species: RAT, Strain/Sex: F344/MALE) “esophagus: tumor”.
As for `O=C(CCNNC(=O)c1ccncc1)NCc1ccccc1`, the outcome (Carcinogen: N-METHYL-N'-NITRO-NITROSOGUANIDINE, Doses [Carcinogen]: 25 UG/ML IN DRINKING WATER FOR 25 WK, Doses [Promoter]: 0, 50 MG/KG IN OLIVE OIL 1/2D FOR 26 WK ADMINISTERED POST CARCINOGEN DOSES (STUDY DURATION: 52 WK), Route [Carcinogen]: ORAL, Route [Promoter]: SUBCUTANEOUS, Species: RAT, Strain/Sex: WISTAR/MALE) was “glandular stomach: adenocarcinoma”.
Take `S=C=NCc1ccccc1`: the outcome (Carcinogen: DIETHYLNITROSAMINE, 55-18-5, N-BUTYL-N-(4-HYDROXYBUTYL)NITROSAMINE, 3817-11-6, Carcinogen: DIETHYLNITROSAMINE, 55-18-5, N-BUTYL-N-(4-HYDROXYBUTYL)NITROSAMINE, 3817-11-6, Doses [Carcinogen]: 200 MG/KG DEN ONCE THEN 0.05% BBN IN DRINKING WATER FOR 4 WK, Doses [Promoter]: 0, 0.1% IN DIET FOR 32 WK BEGINNING 3 D POST CARCINOGEN TREATMENT (STUDY DURATION:36 WK), Route [Carcinogen]: INTRAPERITONEAL, ORAL, Route [Promoter]: ORAL, Species: RAT, Strain/Sex: F344/MALE) is listed as “urinary bladder: papilloma, carcinoma”.
Regarding `CCCCCCCCCCCCCCCCCCCC`, the outcome (Carcinogen: 7,12-DIMETHYLBENZ(A)ANTHRACENE, Doses [Carcinogen]: TOP, Route [Carcinogen]: DERMAL, Route [Promoter]: DERMAL, Species: MOUSE, Strain/Sex: MALE,FEMALE) was “integumentary system (skin)”.
`S=c1nc[nH]c2nc[nH]c12`: where the note is “Carcinogen: UV IRRADIATION, Doses [Carcinogen]: 0.53 J/CM2 INCREASED BY 20% EVERY 2 WK TO 1.60 J/CM2 AND MAINTAINED AT 1.60 J/CM2 UNTIL DEATH, ADMINISTERED 5 D/WK FOR 1, Doses [Promoter]: 0, 15 UG/G BEGINNING 2 WK POST FIRST CARCINOGEN DOSE ADMINISTERED 2 HR PRIOR TO EACH CARCINOGEN DOSE (STUDY DURATION: 30, Route [Carcinogen]: DERMAL, Route [Promoter]: INTRAPERITONEAL, Species: MOUSE, Strain/Sex: SKH/HRL/FEMALE”, the outcome was “skin: tumor”.
For `O=NN1CCC[C@H]1c1cccnc1`, where the note is “Carcinogen: Diethylnitrosamine, 55-18-5, Doses [Carcinogen]: 40 mg/l for 4 consecutive d/wk for 180 days, study duration 180 d, Doses [Promoter]: 30 mg/l, 3 d /wk for 180 d, study duration 180 d, Doses [Promoter]: 30 mg/l, 3 d /wk for 180 d, study duration 180 d, Route [Carcinogen]: Oral (drinking water), Route [Promoter]: Oral (drinking water), Species: Mouse, Strain/Sex: CF1/Female (16, 46/Group)”, the outcome is “stomach: squamous cell carcinoma (33% vs 22%); adenocarcinoma (17% vs 15%); both”.
In the case of `CCC(C(=O)NC(N)=O)c1ccccc1` (stereo unspecified), the outcome (Carcinogen: N-NITROSODIETHYLAMINE, 55-18-5, Doses [Carcinogen]: 75 MG IN STERILE SALINE ONCE, Doses [Promoter]: 0, 444 PPM IN DIET BEGINNING 2 WK POST CARCINOGEN DOSE AND CONTINUING FOR DURATION OF STUDY (STUDY DURATION: 78 WK), Route [Carcinogen]: INTRAPERITONEAL, Route [Promoter]: ORAL, Species: RAT, Strain/Sex: F344/MALE) was “liver: hepatocellular adenoma”.
Consider `S=C=NCCc1ccccc1`, for which the outcome (Carcinogen: DIETHYLNITROSAMINE, 55-18-5, N-BUTYL-N-(4-HYDROXYBUTYL)NITROSAMINE, 3817-11-6, Carcinogen: DIETHYLNITROSAMINE, 55-18-5, N-BUTYL-N-(4-HYDROXYBUTYL)NITROSAMINE, 3817-11-6, Doses [Carcinogen]: 200 MG/KG DEN ONCE THEN 0.05% BBN IN DRINKING WATER FOR 4 WK, Doses [Promoter]: 0, 0.1% IN DIET FOR 32 WKS BEGINNING 3 D POST CARCINOGEN TREATMENT (STUDY DURATION:36 WK), Route [Carcinogen]: INTRAPERITONEAL, ORAL, Route [Promoter]: ORAL, Species: RAT, Strain/Sex: F344/MALE) is “urinary bladder: carcinoma”.
In the case of `Cc1c(N(C)CS(=O)(=O)O)c(=O)n(-c2ccccc2)n1C`, the outcome (Carcinogen: DIETHYLNITROSAMINE, 55-18-5, Doses [Carcinogen]: 0.O1% IN DRINKING WATER FOR 2 WK, Doses [Promoter]: 0.4% IN DRINKING WATER 5 D/ WK FOR 72 WK BEGINNING 1 WK POST CARCINOGEN (STUDY DURATION: 83 WK), Route [Carcinogen]: ORAL, Route [Promoter]: ORAL, Species: RAT, Strain/Sex: F344/MALE) is “liver neoplastic nodule, hepatocellular carcinoma ; kidney: adenoma”.
For `O=NN(CCO)CCO`, the outcome (Carcinogen: NITROSO(2-OXOPROPYL)AMINE, 60599-38-4, Doses [Carcinogen]: 12 MG/ML IN ETHYL ACETATE/CORN OIL (1:1) 2/WK FOR 2 WK, Doses [Promoter]: 0, 100 MG/L IN DRINKING WATER 5 D/WK FOR 40 WK BEGINNING 1/WK POST CARCINOGEN TREATMENT (STUDY DURATION: 43 WK), Route [Carcinogen]: GAVAGE, Route [Promoter]: ORAL, Species: RAT, Strain/Sex: F344/MALE) is “kidney: renal cell carcinoma”.
Consider `CCCCCCCCCCCCO`, for which the outcome under setting [1] is on record as “integumentary system (skin)”.
For `NC(CO)C(=O)O` (stereo unspecified), the outcome reads like this: (Carcinogen: N-ETHYL-N-HYDROXYETHYLNITROSAMINE, 13147-25-6, Doses [Carcinogen]: 500 PPM IN DIET FOR 2 WK, Doses [Promoter]: 0, 100 MG/100 G BW IN 2 ML 5% SALINE GIVEN 1/2 WK FOR 3 DOSES BEGINNING 1 WK POST CARCINOGEN (STUDY DURATION: 32 WK), Route [Carcinogen]: ORAL, Route [Promoter]: SUBCUTANEOUS, Species: RAT, Strain/Sex: WISTAR/MALE) “kidney: dark cell tumor, clear cell tumor, adenocarcinoma”; (Carcinogen: N-ETHYL-N-HYDROXYETHYLNITROSAMINE, 13147-25-6, Doses [Carcinogen]: 1000 PPM IN DIET FOR 2 WK, Doses [Promoter]: 0, 100 MG/100 G BW IN 2 ML 5% SALINE GIVEN 1/2 WK FOR 3 DOSES BEGINNING 1 WK POST CARCINOGEN (STUDY DURATION: 32 WK), Route [Carcinogen]: ORAL, Route [Promoter]: SUBCUTANEOUS, Species: RAT, Strain/Sex: WISTAR/MALE) “kidney: dark cell tumor, clear cell tumor, adenocarcinoma”.
Take `CC1(OO)C=C(C(C)(C)C)C(=O)C(C(C)(C)C)=C1`: the outcome is reported as “skin: papilloma or carcinoma” (Carcinogen: 7,12-DIMETHYLBENZ[A]ANTHRACENE, 57-97-6, Doses [Carcinogen]: 20 NMOL IN 200 µL ACETONE ONCE, Doses [Promoter]: 0, 8 UMOL 2/WK FOR 50 WK BEGINNING 10 D POST CARCINOGEN DOSE (STUDY DURATION: 52 WK), Route [Carcinogen]: DERMAL, Route [Promoter]: DERMAL, Species: MOUSE, Strain/Sex: SENCAR/FEMALE) and “skin: papilloma or carcinoma” (Carcinogen: 7,12-DIMETHYLBENZ[A]ANTHRACENE, 57-97-6, Doses [Carcinogen]: 20 NMOL IN 200 µL ACETONE ONCE, Doses [Promoter]: 0, 20 UMOL 2/WK FOR 50 WK BEGINNING 10 D POST CARCINOGEN DOSE (STUDY DURATION: 52 WK), Route [Carcinogen]: DERMAL, Route [Promoter]: DERMAL, Species: MOUSE, Strain/Sex: SENCAR/FEMALE).
With `CCOC(=O)C#Cc1ccccc1`, the outcome (Carcinogen: 7,12-DIMETHYLBENZ[A]ANTHRACENE, 57-97-6, Doses [Carcinogen]: 10 NMOL (2.5 UG IN 200 µL ACETONE), Doses [Promoter]: 5 MG 2/WK FOR 40 WK BEGINNING 2 WK POST CARCINOGEN TREATMENT (STUDY DURATION: 42 WK), Route [Carcinogen]: DERMAL, Route [Promoter]: DERMAL, Species: MOUSE, Strain/Sex: SENCAR/FEMALE) was “skin: tumor” and the outcome (Carcinogen: 7,12-DIMETHYLBENZ[A]ANTHRACENE, 57-97-6, Doses [Carcinogen]: 100 NMOL, Doses [Promoter]: 3, 5 MG 2/WK FOR 40 WK BEGINNING 2 WK POST CARCINOGEN TREATMENT (STUDY DURATION: 42 WK), Route [Carcinogen]: DERMAL, Route [Promoter]: DERMAL, Species: MOUSE, Strain/Sex: SENCAR/FEMALE) was “skin: tumor”.
Regarding `Cn1c(N)nc2c3cccnc3ccc21`, the outcome (Carcinogen: Diethyl nitrosamine (DEN), 55-18-5 and dimethylhydrazine (DMH), 30260-66-3, Carcinogen: Diethyl nitrosamine (DEN), 55-18-5 and dimethylhydrazine (DMH), 30260-66-3, Doses [Carcinogen]: DEN, 200 mg/kg once at -3 days, DMH, 40 mg/kg 4 injections between day 0 and wk 2, Doses [Promoter]: 0, 300 ppm in diet from week 2 to 29, study duration 29 wk, Doses [Promoter]: 0, 300 ppm in diet from week 2 to 29, study duration 29 wk, Route [Carcinogen]: Intraperitoneal (DEN) and subcutaneous (DMH), Route [Promoter]: Oral, Species: Rat, Strain/Sex: F344/Du Crj (20/group with 11 survivors)) was “liver: hepatocellular adenoma and carcinoma. colon adenoma and carcinoma. signif”.
For `Oc1ccc(Br)cc1`, the outcome under setting [1] is listed as “integumentary system (skin)”.
Turning to `O=CC=O`, the outcome (Carcinogen: N-METHYL-N'-NITRO-N-NITROSOGUANIDINE, 70-25-7, Doses [Carcinogen]: 100 MG/L IN DRINKING WATER FOR 8 WK, Doses [Promoter]: 0, 0.5% IN DRINKING WATER BEGINNING POST LAST CARCINOGEN DOSE AND CONTINUING FOR 32 WK (STUDY DURATION: 40 WK), Route [Carcinogen]: ORAL, Route [Promoter]: ORAL, Species: RAT, Strain/Sex: WISTAR/MALE) is on record as “glandular stomach (pylorus): adenocarcinoma”.
